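Protocol summary: plate cells (96-well), add compound at 5 concentrations, incubate 48 h, interpolate endpoints linearly. Here, GI50 denotes the concentration required for 50% inhibition of growth.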 Active and inactive are the calls of the source. No stated cut-off is given here; in the data, active = GI50 up to about 1.1 µM and inactive = higher.
What was measured:
Assay in all cases: NCI tumour cell line growth inhibition, 48 h
[1] = system: SR
[2] = system: UACC-257
[3] = system: SK-MEL-5
[4] = system: CCRF-CEM
[5] = system: SNB-78
[6] = system: NCI-H23
[7] = system: SW-620
[8] = system: XF498
[9] = system: HCT-15
[10] = system: SK-MEL-28
[11] = system: SN12C
[12] = system: ACHN
[13] = system: KM12
[14] = system: NCI-H226
[15] = system: HOP-62
[16] = system: UO-31
[17] = system: Malme-3M
[18] = system: SNB-75
[19] = system: RXF 393
[20] = system: M14
[21] = system: UACC-62
[22] = system: OVCAR-4
[23] = system: SF-539
[24] = system: RPMI-8226
[25] = system: K562
[26] = system: NCI-H522
[27] = system: HCT-116
[28] = system: M19-MEL
[29] = system: SF-268
[30] = system: KM-20L2
[31] = system: SK-MEL-2
[32] = system: 786-0
[33] = system: DMS-114
[34] = system: A498
[35] = system: SNB-19
[36] = system: LXFL 529
[37] = system: IGROV-1
[38] = system: MOLT-4
[39] = system: COLO 205
[40] = system: EKVX
[41] = system: DLD-1
[42] = system: SK-OV-3
[43] = system: SF-295
[44] = system: HOP-18
[45] = system: HL-60
[46] = system: HT-29
[47] = system: LOX IMVI
[48] = system: OVCAR-8
[49] = system: DMS-273
[50] = system: A549
[51] = system: RXF 631
[52] = system: U-251
[53] = system: OVCAR-3

O=C(Nc1ccc(Cl)cc1Cl)OC(Cn1cncn1)c1ccc(Cl)cc1Cl (stereo not drawn)
GI50 [1]: 41.3 µM (inactive) | GI50 [2]: 17 µM (inactive) | GI50 [3]: 16.7 µM (inactive) | GI50 [4]: 38.9 µM (inactive) | GI50 [5]: 15.6 µM (inactive) | GI50 [6]: 14.6 µM (inactive) | GI50 [7]: 16.7 µM (inactive) | GI50 [8]: 14.7 µM (inactive) | GI50 [9]: 16.6 µM | GI50 [10]: 16.3 µM (inactive) | GI50 [11]: 16.9 µM (inactive) | GI50 [12]: 15.5 µM (inactive) | GI50 [13]: 17.2 µM (inactive) | GI50 [14]: 19.7 µM (inactive) | GI50 [15]: 19.5 µM (inactive) | GI50 [16]: 13.2 µM (inactive) | GI50 [17]: 15 µM (inactive) | GI50 [18]: 16.1 µM (inactive) | GI50 [19]: 16.9 µM (inactive) | GI50 [20]: 17.9 µM (inactive) | GI50 [21]: 14.8 µM (inactive) | GI50 [22]: 14.4 µM (inactive) | GI50 [23]: 17.9 µM (inactive) | GI50 [24]: 94.6 µM (inactive) | GI50 [25]: 15.3 µM (inactive) | GI50 [26]: 16.3 µM (inactive) | GI50 [27]: 14.1 µM (inactive) | GI50 [28]: 17.1 µM (inactive) | GI50 [29]: 17.1 µM (inactive) | GI50 [30]: 16.5 µM (inactive) | GI50 [31]: 19.2 µM (inactive) | GI50 [32]: 19 µM (inactive) | GI50 [33]: 16 µM (inactive) | GI50 [34]: 20 µM (inactive) | GI50 [35]: 16.9 µM (inactive) | GI50 [36]: 16.2 µM (inactive) | GI50 [37]: 16.9 µM (inactive) | GI50 [38]: 31.6 µM (inactive) | GI50 [39]: 17.2 µM (inactive) | GI50 [40]: 16 µM (inactive) | GI50 [41]: 18.5 µM (inactive) | GI50 [42]: 18.3 µM (inactive) | GI50 [43]: 17.4 µM (inactive) | GI50 [44]: 23.8 µM (inactive) | GI50 [45]: 44 µM (inactive) | GI50 [46]: 15.2 µM (inactive) | GI50 [47]: 16.3 µM (inactive) | GI50 [48]: 17.3 µM (inactive) | GI50 [49]: 17.4 µM (inactive) | GI50 [50]: 15.5 µM (inactive) | GI50 [51]: 18.2 µM (inactive) | GI50 [52]: 16.1 µM (inactive) | GI50 [53]: 15.8 µM (inactive)
